According to patent US7781565B2 (priority 2006, dated 2010):
Entries after “also recorded” stand apart in the source; their conditions may differ.

The substances below were run on NCI-60 cell lines.
Assay type: cell-based, human

Substance	Cell Line (NCI-60 cell line the peptide and its motif are associated with)	Cell Line (NCI-60 cell line the peptide is associated with)	Cell Line with which the peptide (and its tripeptide motif) is associated	Cell Line the peptide is associated with (peptide recovered from phage library selection on this NCI-60 cell line)
AAGAGWR	OVCAR-4 Ovarian	–	–	–
AAGGLLV	–	HCC-2998-Colon	–	–
AAGRAGC	–	–	H322-Lung	–
AAGREFR	–	–	Hop-62-Lung	–
AAGRIRP	–	HCT-15 Colon	–	–
AAGRSRI	M14 Melanoma	–	–	–
AAIVGVS	–	–	–	MDA-MB-231 Breast
AAKTLLS	–	SW620-Colon	–	–
AALLRAV	OVCAR-4 Ovarian	–	–	–
AARAVWG	–	–	–	RXF393 Renal
AARGELR	UACC62 Melanoma	–	–	–
AARGLEA	–	COLO-205-Colon	–	–
AARGVMV	SK-MEL-2 Melanoma	–	–	–
AASGSYY	–	HT-29 Colon	–	–
AASLRGT	UACC62 Melanoma	–	–	–
AASPHPG	–	–	–	T-47D Breast
AASSWAV	M14 Melanoma	–	–	–
AASTRSL	–	MALME-3M Melanoma	–	–
AASVGVA	–	–	–	MDA-MB-231 Breast
AATLLSF	–	–	K-562-Leukemia	–
AATRAGS	UACC 257 Melanoma	–	–	–
AAVETGV	–	SF-268 CNS	–	–
AAVFVRS	–	–	K-562-Leukemia	–

Substance	Cell Line (NCI-60 cell line the peptide and its motif are associated with)	Cell Line (NCI-60 cell line the peptide is associated with)	Cell Line with which the peptide (and its tripeptide motif) is associated	Cell Line the peptide is associated with (peptide recovered from phage library selection on this NCI-60 cell line)
AAVGGRV	M14 Melanoma	–	–	–
AAVGTAL	–	–	–	RXF393 Renal
AAVTVVR	–	KM-12C Colon	–	–
AAVWAAD	–	–	HL-60-Leukemia	–
AAVWQMK	–	SNB-19 CNS; also recorded: SF-539 CNS	–	–
AAVWWAA	DU-145 Prostate	–	–	–
AAYWGPS	–	–	–	A498 Renal
ACGSGLD	SK-MEL-5 Melanoma	–	–	–
ACTGVSR	–	–	–	RXF393 Renal
ADFFGLV	–	–	RPMI-8226-Leukemia	–
ADGRLRY	–	KM-12C Colon	–	–
ADIGAGG	–	–	HL-60-Leukemia	–
ADLGAGW	OVCAR-4 Ovarian	–	–	–
ADWGVLE	–	SNB-75 CNS	–	–
AECCGGL	–	–	–	ACHN Renal
AEDSGGR	–	–	–	BT-549 Breast
AEGGSGH	–	–	A549-Lung	–
AEPRGRV	–	–	H460-Lung	–
AEYGRVL	M14 Melanoma	–	–	–
AFFMGLR	–	–	–	ACHN Renal
AFGGGSM	–	–	–	SN12C Renal
AFKTGGS	M14 Melanoma	–	–	–
AGATRGS	–	–	–	HS 578 T Breast

Substance	Cell Line (NCI-60 cell line the peptide and its motif are associated with)	Cell Line (NCI-60 cell line the peptide is associated with)	Cell Line with which the peptide (and its tripeptide motif) is associated	Cell Line the peptide is associated with (peptide recovered from phage library selection on this NCI-60 cell line)
AGDRGVA	DU-145 Prostate	–	–	–
AGDSRLS	–	HCT-15 Colon	–	–
AGGFGVL	IGROV1 Ovarian	–	–	–
AGGFRFI	SK-MEL-2 Melanoma	–	–	–
AGGGGYH	–	–	–	MDA-MB-435-Breast
AGGGPPA	–	–	EKVX-Lung	–
AGGIWIR	–	KM-12C Colon	–	–
AGGPSSY	–	–	–	UO31 Renal
AGGPTKY	–	–	SR Leukemia	–
AGGQSER	–	–	H226-Lung	–
AGGRLGL	–	SF-268 CNS	–	–
AGGRWNL	–	HT-29 Colon	–	–
AGGSLGS	–	–	H23-Lung	–
AGGTDRT	–	–	–	MDA-MB-231 Breast
AGGVRDL	PC3 Prostate	–	–	–
AGGWRGR	–	SF-268 CNS	–	–
AGGWWVG	–	HCT-15 Colon	–	–
AGIARGG	–	–	Hop-92-Lung	–
AGLALTV	–	MALME-3M Melanoma	–	–
AGLEDLG	–	–	–	RXF393 Renal
AGLGHEG	–	–	H23-Lung	–
AGLGLLD	SK-OV-3-3 Ovarian	–	–	–
AGLLSDV	–	–	–	NCI/ADR-RES Breast

Substance	Cell Line (NCI-60 cell line the peptide and its motif are associated with)	Cell Line (NCI-60 cell line the peptide is associated with)	Cell Line with which the peptide (and its tripeptide motif) is associated	Cell Line the peptide is associated with (peptide recovered from phage library selection on this NCI-60 cell line)
AGLPHRF	–	–	–	UO31 Renal
AGLQHAV	–	HCT-15 Colon	–	–
AGLSGGT	–	–	EKVX-Lung	–
AGLSGSQ	–	–	RPMI-8226-Leukemia	–
AGLTIGI	–	SNB-19 CNS; also recorded: SF-539 CNS	–	–
AGLWPWN	–	–	–	CAIK-1 Renal
AGPSAWL	–	–	Hop-92-Lung	–
AGPSRGP	UACC 257 Melanoma	–	–	–
AGRFGAR	OVCAR-8 Ovarian	–	–	–
AGRGAGG	OVCAR-4 Ovarian	–	–	–
AGRGISQ	UACC62 Melanoma	–	–	–
AGRHLDA	–	–	–	HS 578 T Breast
AGRIASK	–	HT-29 Colon	–	–
AGRICEG	–	–	CCRF-CEM Leukemia	–
AGRPDGV	DU-145 Prostate	–	–	–
AGRPGGY	PC3 Prostate	–	–	–
AGRPRAT	–	HCT-116 Colon	–	–
AGRRFGG	–	–	EKVX-Lung	–
AGRRLRD	–	–	–	NCI/ADR-RES Breast
AGRSCNL	–	HCT-116 Colon	–	–
AGRTGVG	–	–	SR Leukemia	–
AGSAFWA	786-0 Renal	–	–	–
AGSGFPF	–	HT-29 Colon	–	–

Substance	Cell Line (NCI-60 cell line the peptide and its motif are associated with)	Cell Line (NCI-60 cell line the peptide is associated with)	Cell Line with which the peptide (and its tripeptide motif) is associated	Cell Line the peptide is associated with (peptide recovered from phage library selection on this NCI-60 cell line)
AGSIALR	–	–	HL-60-Leukemia	–
AGSLSVF	–	–	CCRF-CEM Leukemia	–
AGSMMEF	OVCAR-3 Ovarian	–	–	–
AGSPLAK	–	–	H23-Lung	–
AGSQSWE	–	–	A549-Lung	–
AGSVDLV	SK-MEL-5 Melanoma	–	–	–
AGSVTEQ	–	–	–	UO31 Renal
AGSVYSV	OVCAR-5 Ovarian	–	–	–
AGVFAVS	–	–	HL-60-Leukemia	–
AGWRLSQ	–	–	–	CAIK-1 Renal
AHYTLRS	–	COLO-205-Colon	–	–
AIMGAGL	OVCAR-8 Ovarian	–	–	–
AIRAGSD	–	–	K-562-Leukemia	–
AKAGVSR	–	–	–	MCF-7 Breast
AKLGSVY	–	–	H226-Lung	–
ALAGGGL	–	SNB-75 CNS	–	–
ALARGSG	SK-MEL-2 Melanoma	–	–	–
ALNRGSR	–	–	–	MDA-MB-231 Breast
ALPGGGR	OVCAR-5 Ovarian	–	–	–
ALVSFSV	–	–	EKVX-Lung	–
ALVSRRG	–	–	Molt-4-Leukemia	–
ALVSSHV	SK-MEL-2 Melanoma	–	–	–
ALVSTIL	–	–	–	UO31 Renal

Substance	Cell Line (NCI-60 cell line the peptide and its motif are associated with)	Cell Line (NCI-60 cell line the peptide is associated with)	Cell Line with which the peptide (and its tripeptide motif) is associated	Cell Line the peptide is associated with (peptide recovered from phage library selection on this NCI-60 cell line)
ALVSVAG	–	SF-295 CNS	–	–
AMRPGRL	–	–	RPMI-8226-Leukemia	–
ANAASSP	SK-MEL-5 Melanoma	–	–	–
ANASGVR	M14 Melanoma	–	–	–
ANGSSKK	–	–	–	MDA-MB-231 Breast
ANGVLEL	–	–	Molt-4-Leukemia	–
APGRLGP	OVCAR-4 Ovarian	–	–	–
APLRSGR	–	–	EKVX-Lung	–
ARAGSTF	A498 Renal	–	–	–
ARAIGLG	–	–	Molt-4-Leukemia	–
ARAMGLR	–	–	Hop-62-Lung	–
ARGGESA	SK-OV-3-3 Ovarian	–	–	–
ARGIVRV	–	SW620-Colon	–	–
ARGNVRF	–	–	–	MDA-MB-231 Breast
ARGRDEG	–	–	–	UO31 Renal
ARGRGSQ	PC3 Prostate	–	–	–
ARGSLRV	–	SNB-19 CNS; also recorded: SF-539 CNS	–	–
ARGSWRE	–	–	–	TK-10 Renal
